Here are results for 26 compounds from PubChem BioAssay AID651630 (Sanford-Burnham Center for Chemical Genomics, 2012).

For orientation: IC50 means the concentration that gives 50% inhibition. One may read the pIC50 as −log10 of the IC50, conventionally taken in molar units.

pIC50: −log10 of the molar value. The source made the active and inactive calls.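 Rule for the calls: active = lipid-stain IC50 at or below a set limit, with nuclear-stain toxicity IC50 at least five times higher; inactive = the rest.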 Some results are limits rather than exact numbers.

In one experiment the test system is DAPI. As to the kind of experiment: TAG lipid buildup inhibition with viability readout – cell-based, panel, Nile Red and DAPI fluorescence, H9c2, dose response (AID 651630).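 Note: cells exposed to compound overnight before fixation and staining.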 The following applies: H9c2 cells, DAPI nuclear fluorescence (cytotoxicity counter-readout), oleic acid.
Another experiment relates to TAG. The description is as above. Particulars: H9c2 cells, Nile Red TAG fluorescence, oleic acid.

For the compound `CC1(C(=O)Nc2cccc(Oc3ccccc3)c2)Cc2c(-c3ccc4c(c3)OCO4)ccnc2O1` (stereo unspecified), the figures for the IC50 cytotoxicity (DAPI nuclear signal decrease) in the experiment with DAPI (mean of runs), with DAPI (run 1) and with DAPI (run 2) were > 25 µM (inactive), above 25 µM and above 25 µM, respectively. Also, the IC50 in the experiment on TAG (mean of runs) was > 25 µM (inactive). In addition, the negative-log IC50 (pIC50) in the experiment on TAG (run 1) and with TAG (run 2) was below 4.60 throughout.
As for `CC1CCN(c2cc(N3CCC(C)CC3)c([N+](=O)[O-])cc2/C=C(\C#N)c2nn(-c3ccccc3)c(N)c2C#N)CC1`, the figures for the IC50 cytotoxicity (DAPI nuclear signal decrease) with DAPI (mean of runs), with DAPI (run 1) and with DAPI (run 2) were > 25 µM (inactive), above 25 µM and above 25 µM, respectively. The IC50 in the experiment with TAG (mean of runs) is > 25 µM (inactive). Also, the negative-log IC50 (pIC50) in the experiment on TAG (run 1) and in the experiment with TAG (run 2) was below 4.60 throughout.
With `Cn1c(N)c(C(=O)COC(=O)c2ccc([N+](=O)[O-])o2)c(=O)n(C)c1=O`, the IC50 cytotoxicity (DAPI nuclear signal decrease) is 19.1 µM (inactive) with DAPI (mean of runs), 18.4 µM in the experiment on DAPI (run 1) and 19.8 µM with DAPI (run 2). The pIC50 in the experiment with TAG (mean of runs) was 5.00; with TAG (run 1) it was 5.05; with TAG (run 2), 4.95.
For `CN=C1c2cc3cc(OC)ccc3n2CCN1Cc1ccccc1`, the results for the IC50 cytotoxicity (DAPI nuclear signal decrease) in the experiment on DAPI (mean of runs), in the experiment on DAPI (run 1) and in the experiment on DAPI (run 2) were > 25 µM (inactive), above 25 µM and above 25 µM, respectively. Further, the pIC50 is 4.97 in the experiment with TAG (mean of runs), 5.02 with TAG (run 1) and 4.93 in the experiment with TAG (run 2).
On to `CC(CC(=O)Nc1ccc2c(c1)c(=O)n(C)n2-c1ccc2ccccc2c1)C(F)(F)F` (stereo unspecified), for which the IC50 cytotoxicity (DAPI nuclear signal decrease) in the experiment with DAPI (mean of runs) is > 25 µM (inactive); in the experiment with DAPI (run 1), above 25 µM; with DAPI (run 2) it was above 25 µM. Also, the IC50 in the experiment on TAG (mean of runs) is > 25 µM (inactive). In addition, the negative-log IC50 (pIC50) in the experiment on TAG (run 1) and in the experiment with TAG (run 2) was below 4.60 throughout.
In the case of `O=P(O)(O)CN1CCNCCN(CP(=O)(O)O)CCNCC1`, the values for the IC50 cytotoxicity (DAPI nuclear signal decrease) with DAPI (mean of runs), with DAPI (run 1) and with DAPI (run 2) were > 25 µM (inactive), above 25 µM and above 25 µM, respectively. The figures for the pIC50 in the experiment on TAG (run 1) and with TAG (run 2) were 4.61 and below 4.60, respectively.
As to `CSc1nc(N(C)NC(=O)c2ccccc2)c2ccccc2n1`, the IC50 cytotoxicity (DAPI nuclear signal decrease) in the experiment on DAPI (mean of runs) is > 25 µM (inactive); with DAPI (run 1) it was above 25 µM; with DAPI (run 2), above 25 µM. Besides, the IC50 in the experiment on TAG (mean of runs) is 17.8 µM (inactive). In addition, the negative-log IC50 (pIC50) is 4.66 in the experiment with TAG (run 1) and 4.87 in the experiment on TAG (run 2).
For the compound `COC(=O)[C@@]1(Cc2ccccc2)[C@H]2C(=O)N(Cc3ccccc3)C(=O)[C@H]2[C@H]2CN=C(SCc3ccc(Cl)cc3)N21`, the figures for the IC50 cytotoxicity (DAPI nuclear signal decrease) in the experiment with DAPI (mean of runs), with DAPI (run 1) and with DAPI (run 2) were > 25 µM (inactive), above 25 µM and above 25 µM, respectively. Also, the pIC50 in the experiment on TAG (mean of runs) was 5.01; in the experiment on TAG (run 1), 4.98; in the experiment on TAG (run 2), 5.04.
Take `CCCCNC(=O)C(=O)Nc1ccc2c(c1)N(S(=O)(=O)c1cccs1)CCC2`: the IC50 cytotoxicity (DAPI nuclear signal decrease) in the experiment with DAPI (mean of runs) was > 25 µM (inactive); with DAPI (run 1), above 25 µM; in the experiment on DAPI (run 2) it was above 25 µM. In addition, the pIC50 is below 4.60 in the experiment with TAG (run 1) and 5.02 in the experiment with TAG (run 2).
For the compound `CCCOC(=O)c1ccc(NC(=O)CCOc2ccccc2)cc1`, the IC50 cytotoxicity (DAPI nuclear signal decrease) is > 25 µM (inactive) in the experiment on DAPI (mean of runs), above 25 µM in the experiment on DAPI (run 1) and above 25 µM in the experiment with DAPI (run 2). In addition, the IC50 with TAG (mean of runs) is 21.5 µM (inactive). Besides, the values for the negative logarithm of the IC50 (pIC50) with TAG (run 1) and in the experiment with TAG (run 2) were 4.74 and 4.61, respectively.
For the compound `CC(C)C[C@H]1C(=O)N2CCC[C@H]2[C@]2(O)O[C@](NC(=O)C3C=C4c5cccc6[nH]c(Br)c(c56)C[C@H]4N(C)C3)(C(C)C)C(=O)N12` (stereo partly specified), the IC50 cytotoxicity (DAPI nuclear signal decrease) was > 25 µM (inactive) in the experiment with DAPI (mean of runs), above 25 µM with DAPI (run 1) and above 25 µM in the experiment on DAPI (run 2). The negative logarithm of the IC50 (pIC50) is 5.19 in the experiment on TAG (mean of runs), 5.27 with TAG (run 1) and 5.13 in the experiment with TAG (run 2).
With `Cn1nnnc1Sc1ncnc2scc(-c3cccc(S(C)(=O)=O)c3)c12`, the IC50 cytotoxicity (DAPI nuclear signal decrease) was > 25 µM (inactive) in the experiment on DAPI (mean of runs), above 25 µM with DAPI (run 1) and above 25 µM with DAPI (run 2). For the same compound, in the experiment with TAG (mean of runs), the IC50 is > 25 µM (inactive). Further, the pIC50 in the experiment on TAG (run 1) and in the experiment on TAG (run 2) was below 4.60 throughout.
With `O=C1COc2ccc(C(=O)CSc3nc4ccccc4c(=O)n3-c3ccc(Cl)c(Cl)c3)cc2N1`, the IC50 cytotoxicity (DAPI nuclear signal decrease) in the experiment on DAPI (mean of runs) is 18.1 µM (inactive); in the experiment with DAPI (run 1), 18.4 µM; in the experiment with DAPI (run 2), 17.8 µM. Besides, the figures for the pIC50 with TAG (mean of runs), with TAG (run 1) and with TAG (run 2) were 4.86, 4.85 and 4.87, respectively.
`NC(Cc1ccc(F)cc1)c1csc(Nc2ccc(C(F)(F)F)cn2)n1` (stereo unspecified): the IC50 cytotoxicity (DAPI nuclear signal decrease) in the experiment on DAPI (run 1) is above 25 µM; in the experiment on DAPI (run 2), 23.8 µM. In addition, the pIC50 is below 4.60 in the experiment on TAG (run 1) and 5.08 in the experiment on TAG (run 2).
Consider `CSc1ccc(C2=C/C(=C3/SC(=S)NC3=O)c3ccccc3O2)cc1`, for which the IC50 cytotoxicity (DAPI nuclear signal decrease) was > 25 µM (inactive) in the experiment with DAPI (mean of runs), above 25 µM in the experiment on DAPI (run 1) and above 25 µM with DAPI (run 2). For the same compound, the pIC50 in the experiment with TAG (mean of runs) was 4.84; in the experiment with TAG (run 1) it was 4.93; with TAG (run 2), 4.76.
`Cc1ccc(-c2nn3c(C)nnc3c3ccccc23)cc1S(=O)(=O)NC(C)c1ccccc1` (stereo unspecified): the IC50 cytotoxicity (DAPI nuclear signal decrease) with DAPI (mean of runs) is > 25 µM (inactive); in the experiment with DAPI (run 1), above 25 µM; in the experiment on DAPI (run 2) it was above 25 µM. Further, the IC50 in the experiment on TAG (mean of runs) was 19.7 µM (inactive). In addition, the pIC50 with TAG (run 1) was 4.73; in the experiment with TAG (run 2), 4.69.
Consider `CCC(C)(C)NC(=O)C(c1ccc(OC)cc1)N(CC1CCCO1)C(=O)CCC(=O)Nc1cc(C)on1` (stereo unspecified), for which the IC50 cytotoxicity (DAPI nuclear signal decrease) with DAPI (mean of runs) is > 25 µM (inactive); in the experiment with DAPI (run 1), above 25 µM; in the experiment on DAPI (run 2) it was above 25 µM. Also, the negative logarithm of the IC50 (pIC50) in the experiment with TAG (mean of runs) is 5.15; in the experiment on TAG (run 1), 5.09; in the experiment on TAG (run 2) it was 5.23.
For `CCOC(=O)c1cc(-c2ccccc2)sc1NC(=O)C(C)N1C(=O)NC(C)(c2ccc(Cl)cc2)C1=O` (stereo unspecified), the IC50 cytotoxicity (DAPI nuclear signal decrease) in the experiment with DAPI (mean of runs) is > 25 µM (inactive); in the experiment with DAPI (run 1), above 25 µM; in the experiment with DAPI (run 2), above 25 µM. The negative logarithm of the IC50 (pIC50) was 5.25 with TAG (mean of runs), 5.30 in the experiment on TAG (run 1) and 5.22 in the experiment with TAG (run 2).
Regarding `CCOc1ccccc1-c1nc(-c2ccc(NC(=O)Cc3ccccc3OC)cc2)no1`, the IC50 cytotoxicity (DAPI nuclear signal decrease) in the experiment on DAPI (mean of runs) is > 25 µM (inactive); in the experiment with DAPI (run 1), above 25 µM; in the experiment on DAPI (run 2), above 25 µM. The IC50 in the experiment on TAG (mean of runs) was > 25 µM (inactive). In addition, the pIC50 with TAG (run 1) and with TAG (run 2) was below 4.60 throughout.
Consider `Cc1ccc(NC(=O)c2nc[nH]c2C(=O)NCCCCNC(=O)c2[nH]cnc2C(=O)Nc2ccc(C)cc2)cc1`, for which the IC50 cytotoxicity (DAPI nuclear signal decrease) in the experiment on DAPI (mean of runs) was > 25 µM (inactive); in the experiment on DAPI (run 1), above 25 µM; in the experiment with DAPI (run 2), above 25 µM. The results for the pIC50 with TAG (mean of runs), in the experiment with TAG (run 1) and in the experiment with TAG (run 2) were 5.26, 5.20 and 5.33, respectively.
Take `COc1cc(C#Cc2c(-c3cncn3C)n(C)c3ccc(-c4cnc(N5CCOCC5)nc4)cc23)cc(OC)c1`: the results for the IC50 cytotoxicity (DAPI nuclear signal decrease) in the experiment with DAPI (mean of runs), with DAPI (run 1) and in the experiment with DAPI (run 2) were > 25 µM (inactive), above 25 µM and above 25 µM, respectively. Further, the results for the negative-log IC50 (pIC50) in the experiment with TAG (mean of runs), with TAG (run 1) and in the experiment with TAG (run 2) were 4.96, 4.84 and 5.12, respectively.
On to `O=C(CSc1nc2ccc(Nc3nc(N4CCOCC4)nc(N4CCOCC4)n3)cc2s1)Nc1ccccc1F`, for which the values for the IC50 cytotoxicity (DAPI nuclear signal decrease) with DAPI (mean of runs), with DAPI (run 1) and in the experiment with DAPI (run 2) were > 25 µM (inactive), above 25 µM and above 25 µM, respectively. The values for the negative logarithm of the IC50 (pIC50) in the experiment on TAG (mean of runs), in the experiment on TAG (run 1) and with TAG (run 2) were 4.89, 4.90 and 4.88, respectively.
As to `Cc1ccc(Cc2nnc(SCC(=O)Nc3ccccc3)n(N)c2=O)cc1`, the IC50 cytotoxicity (DAPI nuclear signal decrease) in the experiment with DAPI (mean of runs) was > 25 µM (inactive); with DAPI (run 1) it was above 25 µM; in the experiment on DAPI (run 2) it was above 25 µM. The pIC50 was 5.04 in the experiment on TAG (mean of runs), 5.07 with TAG (run 1) and 5.01 with TAG (run 2).
Regarding `COC(=O)C=C1CCC2C3CCC4=CC(=O)C(Br)CC4(C)C3C(=O)CC12C` (stereo unspecified), the IC50 cytotoxicity (DAPI nuclear signal decrease) with DAPI (run 1) is above 25 µM; with DAPI (run 2) it was 22.3 µM. For the same compound, the pIC50 in the experiment on TAG (mean of runs) is 5.01; with TAG (run 1), 5.02; in the experiment on TAG (run 2), 4.99.
`CCOc1ccc2nc(NC(=O)C3CCCN(S(=O)(=O)c4c(C)noc4C)C3)sc2c1` (stereo unspecified): the figures for the IC50 cytotoxicity (DAPI nuclear signal decrease) with DAPI (mean of runs), with DAPI (run 1) and in the experiment with DAPI (run 2) were > 25 µM (inactive), above 25 µM and above 25 µM, respectively. Also, the pIC50 was 5.30 with TAG (mean of runs), 5.39 with TAG (run 1) and 5.22 in the experiment with TAG (run 2).
On to `COc1cc(CNC(=O)Nc2nc(C(N)Cc3ccc(C(F)(F)F)cc3)cs2)cc(OC)c1OC` (stereo unspecified), for which the IC50 cytotoxicity (DAPI nuclear signal decrease) was > 25 µM (inactive) with DAPI (mean of runs), above 25 µM in the experiment with DAPI (run 1) and above 25 µM in the experiment with DAPI (run 2). The pIC50 in the experiment with TAG (mean of runs) is 5.08; with TAG (run 1) it was 5.09; with TAG (run 2) it was 5.06.
